According to patent US20210380994A1, “LACTOCOCCUS LACTIS EXPRESSION SYSTEM FOR DELIVERING PROTEINS EFFICACIOUS FOR THE TREATMENT OF EPITHELIAL BARRIER FUNCTION DISORDERS” (Second Genome, Inc., priority 2018, published 2021):

Legend:
[1] = system: human colonic epithelial cells (HCT8 enterocytes and HT29-MTX goblet cells); test: trans-epithelial electrical resistance (TEER) assay, epithelial/monocyte co-culture disrupted by heat killed E. coli; format: cell-based; conditions: staurosporine 100 nM, control compound
Procedure: Assays were performed as described below in trans-well plates where co-cultures of multiple cell types were performed utilizing a permeable membrane to separate cells. In the apical (top) chamber, human colonic epithelial cells, consisting of a mixture of enterocytes and goblet cells, were cultured until cells obtained tight junction formation and barrier function capacity as assessed by measurement of trans-epithelial electrical resistance (TEER). In the basolateral chamber, monocytes were cultured separately. Epithelial […] were primed with inflammatory cytokines. The assays measured the effect of a therapeutic protein, e.g., SG-11, on epithelial barrier function, muc2 gene expression, and production of cytokines.
Cell culture. The HCT8 human enterocyte cell line (ATCC Cat. No. CCL-244) was maintained in RPMI-1640 medium supplemented with 10% fetal bovine seam, 100 IU/ml penicillin, 100 ? g/ml streptomycin, 10 ? g/ml gentamicin and 0.25 μg/ml amphotericin (cRPMI). […]
Epithelial cell culture. […] Epithelial cells were trypsinized from culture flasks and viable cells determined by trypan blue counting. […]
Co-culture assay. […] TEER readings were measured after the IFN-© treatment and were used as the pre-treatment TEER value. […]

[2] = system: HCT8 enterocyte and HT29-MTX goblet cell lines; test: Oris Cell Migration assay (epithelial cell wound healing); format: cell-based, human; conditions: 48 hours; SG-11 1 μg/ml, EGF 30 ng/ml, staurosporine 100 nM; FIG. 2
Source text: The 96 well Oris Cell Migration assay containing plugs preventing cell attachment in the center of each well was used according to the manufacturer's instructions (Platypus Technologies. Madison, Wis.).
The migration assay plates were warmed to room temperature prior to use and plugs were removed rom 100% confluence wells prior to cell addition. The HCT8 enterocyte and HT29-MTX goblet cell lines were used at a 9:1 ratio with a total of 5×10^4 total cells added per well (4.5×10^4 HCT8 cells and 0.5×10^4 HT29-MTX cells). Cells were incubated at 37° C.+5% CO2 for 24 hours. Plugs were then removed from all control and sample wells. Control wells included cells treated with the diluent vehicle as the blank, 30 ng/ml epidermal growth factor (EGF) as the positive control, and 100 nM staurosporine as the negative control, all diluted in cRPMI. Sample wells contained SG-11 protein (SEQ ID NO:9) at a concentration of 1 μg/ml diluted in eRPMI. 100% and 0% wells were cultured in cRPMI. […] The green fluorescent viability dye Calcenin AM was added to all wells at a concentration of 0.5 μg/min PBS containing 0.9 mM CaCl2 and 0.5 mM MgCl2, incubated for 30 min at 37° C.+5% CO2, the dye was removed and cells were washed in PBS containing 0.9 mM CaCl2 and 0.5 mM MgCl2, and fluorescence was measured. […] Samples were normalized between 100% and 0% samples and values expressed as a percent growth.

[3] = system: C57BL/6 mice treated with DSS; test: therapeutic DSS model of inflammatory bowel disease, treatment after 7 days DSS (Examples 5, 13B); format: in vivo
Procedure: Following a 7-day acclimation period, the mice were provided with drinking water containing 2.5% DSS for 7 days. Fresh 2.5% DSS water was prepared every 2 days during the 7 day DSS administration. For this therapeutic DSS study, SG-11 used to treat the animals was fused at its N-terminus to a FLAG Tag (DYKDDDDK; SEQ ID NO:32).
On day 7, normal drinking water was restored and i.p. treatments of 50 nmole/kg of SG-11 ([…]) or Gly2-GLP2 (0.2 mg/kg) were initiated. Treatments were administered twice a day (b.i.d.), with a morning and evening dose (every 8 and 16 hours) for six days.
Body weight was measured daily during the morning treatment. The colon tissue was then harvested and length was measured in centimeters and the tissue was weighed. Fecal material was flushed from the colon and residual PBS removed by gently running the colon tissue through a pair of forceps. The colon tissue was then weighed and colon weight to length ratio in mg/mm was determined. Following weight measurements proximal and distal colon tissue was banked for RNA and protein analysis and the remaining tissues was fixed in 10% neutral buffered formalin for histopathology. Statistical analysis was performed by a one-way ANOVA compared to DSS+vehicle for serum 4KDa-FITC translocation, scrum LBP concentrations, colon length, and colon weight to length ratio, while a two-way ANOVA was performed for analysis of body weight. In all analysis, a Fisher's LSD test for multiple comparisons was used. Graphs represent data pooled from two experiments, and are plotted as mean±SEM.
Histopathology analysis was performed on proximal and distal colon tissues from the therapeutic DSS model described above. Proximal (FIG. 13A) and distal (FIG. 13B) colon scores (range 0-4) are presented as well as the total score for the colon which represents the sum of proximal and distal colon scores (Range 0-8) (FIG. 13C). LMA=Loss of mucosal architecture, Edema=Edema, INF=Inflammation, TMI=Transmural inflammation, MH=Mucosal hyperplasia, DYS=Dysplasia. Graphs represent data pooled from two independent experiments, and are plotted as mean±SEM. Statistical analysis was performed by a one-way ANOVA compared to DSS+vehicle followed by a Fisher's LSD test for multiple comparisons. […]
At the end of each DSS model study, mice were fasted for 4 hours and then orally gavaged with 600 mg/kg 4KDa dextran labeled with FITC [4KDa-FITC]. One hour after the 4KDa-FITC gavage, mice were euthanized, blood was collected, and FITC signal was measured in serum. […]
Upon completion of the OSS models above. LBP levels were measured as an inflammation centric readout of barrier function following the protocol detailed in Example 5. […] LPS binding protein (LBP) levels were measured in serum using a commercially available ELISA Kit (Enzo Lift Sciences).

[4] = system: C57BL/6 mice treated with DSS; test: concurrent (prophylactic) DSS model of inflammatory bowel disease (Examples 4, 13A); format: in vivo; conditions: Example 4; 50 nmoles/kg i.p. b.i.d.
Procedure: On day six, mice were fasted for four hours and then orally gavaged with 600 mg/kg 4KDa dextran labeled with fluorescein isothiocyanate (FITC) [4KDa-FITC]. One hour after the 4KDa-FITC gavage, mice were euthanized, blood was collected, and FITC signal was measured in serum. […] The magnitude of 4KDa-FITC dextran translocation observed for SG-11 was similar to the positive control of Gly2-GLP2. Results are shown in FIG. 3, and are presented as mean±SEM. The graph in FIG. 3 represents data pooled from 3 independent experiments, each using 10 mice (n=30).
SG-11 was also assessed for its effects on the levels of lipopolysaccharide (LPS) binding protein (LBP) in the blood of the DSS animal with and without SG-11 administration. LBP, which has been linked to clinical disease activity in subjects with inflammatory bowel disease, was also measured by […] in the serum of mice tested in the DSS model described in this Example. […] Results are shown in FIG. 4, and are presented as mean±SEM. The graph in FIG. 4 represents data pooled from 3 independent experiments (n=30; each experiment using 10 mice).
Body weight was measured daily from mice included in the DSS model described in this Example. Percent change from starting weight on day 0 was determined for each mouse. […]
Colon length was measured in mice included in the DSS model described above. […]

[5] = mouse, in vivo, ip
Procedure: Eight-week old C57BL/6 mice were housed 5 animals per cage and given food and water ad libitum for 7 days. Following the 7-day acclimation period, treatments were initiated concurrently with addition of 2.5% DSS to the drinking water. […] The mice were treated with 2.5% DSS in their drinking water for 6 days. […] Fresh 2.5% DSS drinking water was prepared every 2 days.

CN[C@@H]1C[C@H]2O[C@@](C)([C@@H]1OC)n1c3ccccc3c3c4c(c5c6ccccc6n2c5c31)C(=O)NC4 [staurosporine, reference compound]
TEER [1]: drastic decrease in TEER
percent growth (epithelial cell wound healing) [2]: suppressing cell proliferation

EGF: epidermal growth factor, positive control (NSDSECPLSHDGYCLHDGVCMYIEALDKYACNCVVGYIGERCQYRDLKWWELR; UniProt P01133 971-1023, looked up)
percent growth (epithelial cell wound healing) [2]: increasing proliferation

Gly2-GLP2 [reference compound]
histopathology: inflammation and transmural inflammation scores ([3]; Example 5): no change
histopathology: loss of mucosal architecture score ([3]; Example 5): modest, but significant reduction
serum LBP ([3]; Example 5, 50 nmole/kg i.p. b.i.d. six days after 7 days DSS, FLAG-tagged SG-11): no reduction in LBP
colon weight to length ratio ([3]; Example 13B, p<0.01): did not
colon length [4]: significant improvement in colon length
colon weight to length ratio [4]: significant improvement in colon weight to length ratios

fluorescently labeled bovine serum albumin: fluorescently labeled bovine serum albumin used for tracking studies
time at which protein reached the colon [5]: 6 h
